Results published in ChEMBL document CHEMBL1132813, “Design, synthesis and cytotoxic activities of naphthyl analogues of combretastatin A-4” (Bioorg Med Chem Lett, 2000).

Experiments:
Format in all cases: functional, cell-based
A549 = assay: The compound was evaluated for its cytotoxic potency against A-549 cell line; settings: Homo sapiens
P388 = assay: The compound was evaluated for its cytotoxic potency against P388 cell line; settings: Mus musculus
HT-29 = assay: The compound was evaluated for its cytotoxic potency against HT-29 cell line; settings: Homo sapiens
SK-MEL-28 = assay: The compound was evaluated for its cytotoxic potency against MEL-28 cell line; settings: Homo sapiens

Row | Compound | IC50 (A549) | IC50 (P388) | IC50 (HT-29) | IC50 (SK-MEL-28)
1 | COc1cc(/C=C/c2ccc3ccccc3c2)cc(OC)c1OC | 0.398 µM | 0.398 µM | 0.398 µM | 0.398 µM
2 | COc1cc(CCc2ccc3ccccc3c2)cc(OC)c1OC | 0.316 µM | 0.316 µM | 0.316 µM | 0.316 µM
3 | COc1cc(/C=C\c2ccc3ccccc3c2)cc(OC)c1OC [NAPHTHYLCOMBRETASTATIN] | 0.0158 µM | 0.0158 µM | 0.0158 µM | 0.0158 µM
4 | COc1ccc(/C=C\c2ccc3ccccc3c2)cc1O | 0.0398 µM | 0.0398 µM | 0.0398 µM | 0.0398 µM
5 | COc1ccc(/C=C\c2cc(OC)c(OC)c(OC)c2)cc1O [COMBRETASTATIN A4] | 0.00316 µM | 0.00316 µM | 0.0316 µM | 0.00316 µM
6 | C(=C/c1ccc2ccccc2c1)/c1ccc2ccccc2c1 | 3.98 µM | 3.98 µM | 3.98 µM | 3.98 µM
7 | COc1ccc(/C=C/c2ccc3ccccc3c2)cc1O | 3.98 µM | 3.98 µM | 3.98 µM | 3.98 µM
8 | COc1ccc2[nH]c(-c3ccc4ccccc4c3)c(-c3cc(OC)c(OC)c(OC)c3)c2c1 | 1.26 µM | 1.26 µM | 1.26 µM | 1.26 µM
9 | COc1ccc(CCc2ccc3ccccc3c2)cc1O | 5.01 µM | 5.01 µM | 10 µM | 5.01 µM
